Reference: patent US20230017045A1, “PYRIDINE AND PYRIMIDINE CARBOXYLATE HERBICIDES AND METHODS OF USE THEREOF” (Dow AgroSciences LLC, priority 2017, published 2023)

test system: test plant species; experiment: Post-emergent herbicidal activity test (greenhouse, foliar spray, visual growth reduction); assay type: in vivo; settings: post-emergence, 336 h, ECHCG: barnyardgrass (Echinochloa crus-galli), 140 g ai/ha, 14 days after application, read-out: Visual Growth Reduction (%) 14 Days After Application, ECHCG
Procedure, shortened: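 Visual percent injury (0-100) rated 14 d after treatment, relative to nontreated and solvent-blank plants. Test plants at first or second true leaf stage received an overhead track-sprayer application at 187 L/ha. Compounds were formulated in aqueous acetone/DMSO carrier containing crop oil concentrate and X-77 surfactant.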

Row | Compound | pest or weed control at 140 g/ha
1 | COC(=O)c1nc(-c2cc(F)c3c(c2)OC(F)(F)O3)c(F)cc1Cl [F240, Methyl 3-chloro-5-fluoro-6-(2,2,7-trifluorobenzo[d][1,3]dioxol-5-yl)picolinate] | 0 to 29%
2 | COC(=O)c1nc(-c2cc(F)c(C(F)(F)F)cc2F)ccc1Cl [F323, Methyl 3-chloro-6-(2,5-difluoro-4-(trifluoromethyl)phenyl)picolinate] | 0 to 29%

same assay, conditions: post-emergence, 336 h, IPOHE: ivy-leaf morning glory (Ipomoea hederacea), 140 g ai/ha, 14 days after application, read-out: Visual Growth Reduction (%) 14 Days After Application, IPOHE

Row | Compound | pest or weed control at 140 g/ha
3 | COC(=O)c1nc(-c2cc(F)c3c(c2)OC(F)(F)O3)c(F)cc1Cl [F240, Methyl 3-chloro-5-fluoro-6-(2,2,7-trifluorobenzo[d][1,3]dioxol-5-yl)picolinate] | 95 to 100%
4 | COC(=O)c1nc(-c2cc(F)c(C(F)(F)F)cc2F)ccc1Cl [F323, Methyl 3-chloro-6-(2,5-difluoro-4-(trifluoromethyl)phenyl)picolinate] | 95 to 100%

same assay, conditions: post-emergence, 336 h, KCHSC: kochia (Bassia scoparia), 140 g ai/ha, 14 days after application, read-out: Visual Growth Reduction (%) 14 Days After Application, KCHSC

Row | Compound | pest or weed control at 140 g/ha
5 | COC(=O)c1nc(-c2cc(F)c3c(c2)OC(F)(F)O3)c(F)cc1Cl [F240, Methyl 3-chloro-5-fluoro-6-(2,2,7-trifluorobenzo[d][1,3]dioxol-5-yl)picolinate] | 0 to 29%
6 | COC(=O)c1nc(-c2cc(F)c(C(F)(F)F)cc2F)ccc1Cl [F323, Methyl 3-chloro-6-(2,5-difluoro-4-(trifluoromethyl)phenyl)picolinate] | 30 to 44%

same assay, conditions: post-emergence, 336 h, ORYSA: rice (Oryza sativa), 140 g ai/ha, 14 days after application, read-out: Visual Growth Reduction (%) 14 Days After Application, ORYSA

Row | Compound | pest or weed control at 140 g/ha
7 | COC(=O)c1nc(-c2cc(F)c3c(c2)OC(F)(F)O3)c(F)cc1Cl [F240, Methyl 3-chloro-5-fluoro-6-(2,2,7-trifluorobenzo[d][1,3]dioxol-5-yl)picolinate] | 0 to 29%
8 | COC(=O)c1nc(-c2cc(F)c(C(F)(F)F)cc2F)ccc1Cl [F323, Methyl 3-chloro-6-(2,5-difluoro-4-(trifluoromethyl)phenyl)picolinate] | 0 to 29%

same assay, conditions: post-emergence, 336 h, SETFA: giant foxtail (Setaria faberi), 140 g ai/ha, 14 days after application, read-out: Visual Growth Reduction (%) 14 Days After Application, SETFA

Row | Compound | pest or weed control at 140 g/ha
9 | COC(=O)c1nc(-c2cc(F)c3c(c2)OC(F)(F)O3)c(F)cc1Cl [F240, Methyl 3-chloro-5-fluoro-6-(2,2,7-trifluorobenzo[d][1,3]dioxol-5-yl)picolinate] | 0 to 29%
10 | COC(=O)c1nc(-c2cc(F)c(C(F)(F)F)cc2F)ccc1Cl [F323, Methyl 3-chloro-6-(2,5-difluoro-4-(trifluoromethyl)phenyl)picolinate] | 30 to 44%

same assay, conditions: post-emergence, 336 h, SORVU: grain sorghum (Sorghum vulgare), 140 g ai/ha, 14 days after application, read-out: Visual Growth Reduction (%) 14 Days After Application, SORVU

Row | Compound | pest or weed control at 140 g/ha
11 | COC(=O)c1nc(-c2cc(F)c3c(c2)OC(F)(F)O3)c(F)cc1Cl [F240, Methyl 3-chloro-5-fluoro-6-(2,2,7-trifluorobenzo[d][1,3]dioxol-5-yl)picolinate] | 75 to 84%
12 | COC(=O)c1nc(-c2cc(F)c(C(F)(F)F)cc2F)ccc1Cl [F323, Methyl 3-chloro-6-(2,5-difluoro-4-(trifluoromethyl)phenyl)picolinate] | 85 to 94%

same assay, conditions: post-emergence, 336 h, STEME: common chickweed (Stellaria media), 140 g ai/ha, 14 days after application, read-out: Visual Growth Reduction (%) 14 Days After Application, STEME

Row | Compound | pest or weed control at 140 g/ha
13 | COC(=O)c1nc(-c2cc(F)c3c(c2)OC(F)(F)O3)c(F)cc1Cl [F240, Methyl 3-chloro-5-fluoro-6-(2,2,7-trifluorobenzo[d][1,3]dioxol-5-yl)picolinate] | 0 to 29%
14 | COC(=O)c1nc(-c2cc(F)c(C(F)(F)F)cc2F)ccc1Cl [F323, Methyl 3-chloro-6-(2,5-difluoro-4-(trifluoromethyl)phenyl)picolinate] | 0 to 29%

same assay, conditions: post-emergence, 336 h, TRZAS: wheat, spring (Triticum aestivum), 140 g ai/ha, 14 days after application, read-out: Visual Growth Reduction (%) 14 Days After Application, TRZAS

Row | Compound | pest or weed control at 140 g/ha
15 | COC(=O)c1nc(-c2cc(F)c3c(c2)OC(F)(F)O3)c(F)cc1Cl [F240, Methyl 3-chloro-5-fluoro-6-(2,2,7-trifluorobenzo[d][1,3]dioxol-5-yl)picolinate] | 0 to 29%
16 | COC(=O)c1nc(-c2cc(F)c(C(F)(F)F)cc2F)ccc1Cl [F323, Methyl 3-chloro-6-(2,5-difluoro-4-(trifluoromethyl)phenyl)picolinate] | 0 to 29%

same assay, conditions: post-emergence, 336 h, blackgrass (Alopecurus myosuroides), 14 Days After Application, 140 g ai/ha, read-out: Visual Growth Reduction (%) ALOMY

Row | Compound | pest or weed control at 140 g/ha
17 | COC(=O)c1nc(-c2cc(F)c3c(c2)OC(F)(F)O3)c(F)cc1Cl [F240, Methyl 3-chloro-5-fluoro-6-(2,2,7-trifluorobenzo[d][1,3]dioxol-5-yl)picolinate] | 0 to 29%
18 | COC(=O)c1nc(-c2cc(F)c(C(F)(F)F)cc2F)ccc1Cl [F323, Methyl 3-chloro-6-(2,5-difluoro-4-(trifluoromethyl)phenyl)picolinate] | 0 to 29%

same assay, conditions: post-emergence, 336 h, canada thistle (Cirsium arvense), 14 Days After Application, 140 g ai/ha, read-out: Visual Growth Reduction (%) CIRAR

Row | Compound | pest or weed control at 140 g/ha
19 | COC(=O)c1nc(-c2cc(F)c3c(c2)OC(F)(F)O3)c(F)cc1Cl [F240, Methyl 3-chloro-5-fluoro-6-(2,2,7-trifluorobenzo[d][1,3]dioxol-5-yl)picolinate] | 0 to 29%
20 | COC(=O)c1nc(-c2cc(F)c(C(F)(F)F)cc2F)ccc1Cl [F323, Methyl 3-chloro-6-(2,5-difluoro-4-(trifluoromethyl)phenyl)picolinate] | 45 to 59%

same assay, conditions: post-emergence, 336 h, crabgrass (Digitaria sanguinalis), 14 Days After Application, 140 g ai/ha, read-out: Visual Growth Reduction (%) DIGSA

Row | Compound | pest or weed control at 140 g/ha
21 | COC(=O)c1nc(-c2cc(F)c3c(c2)OC(F)(F)O3)c(F)cc1Cl [F240, Methyl 3-chloro-5-fluoro-6-(2,2,7-trifluorobenzo[d][1,3]dioxol-5-yl)picolinate] | 95 to 100%
22 | COC(=O)c1nc(-c2cc(F)c(C(F)(F)F)cc2F)ccc1Cl [F323, Methyl 3-chloro-6-(2,5-difluoro-4-(trifluoromethyl)phenyl)picolinate] | 75 to 84%

same assay, conditions: post-emergence, 336 h, lambsquarters (Chenopodium album), 14 Days After Application, 140 g ai/ha, read-out: Visual Growth Reduction (%) CHEAL

Row | Compound | pest or weed control at 140 g/ha
23 | COC(=O)c1nc(-c2cc(F)c3c(c2)OC(F)(F)O3)c(F)cc1Cl [F240, Methyl 3-chloro-5-fluoro-6-(2,2,7-trifluorobenzo[d][1,3]dioxol-5-yl)picolinate] | 60 to 74%
24 | COC(=O)c1nc(-c2cc(F)c(C(F)(F)F)cc2F)ccc1Cl [F323, Methyl 3-chloro-6-(2,5-difluoro-4-(trifluoromethyl)phenyl)picolinate] | 85 to 94%

same assay, conditions: post-emergence, 336 h, redroot pigweed (Amaranthus retroflexus), 14 Days After Application, 140 g ai/ha, read-out: Visual Growth Reduction (%) AMARE

Row | Compound | pest or weed control at 140 g/ha
25 | COC(=O)c1nc(-c2cc(F)c3c(c2)OC(F)(F)O3)c(F)cc1Cl [F240, Methyl 3-chloro-5-fluoro-6-(2,2,7-trifluorobenzo[d][1,3]dioxol-5-yl)picolinate] | 30 to 44%
26 | COC(=O)c1nc(-c2cc(F)c(C(F)(F)F)cc2F)ccc1Cl [F323, Methyl 3-chloro-6-(2,5-difluoro-4-(trifluoromethyl)phenyl)picolinate] | 75 to 84%

same assay, conditions: post-emergence, 336 h, wild oat (Avena fatua), 14 Days After Application, 140 g ai/ha, read-out: Visual Growth Reduction (%) AVEFA

Row | Compound | pest or weed control at 140 g/ha
27 | COC(=O)c1nc(-c2cc(F)c3c(c2)OC(F)(F)O3)c(F)cc1Cl [F240, Methyl 3-chloro-5-fluoro-6-(2,2,7-trifluorobenzo[d][1,3]dioxol-5-yl)picolinate] | 0 to 29%
28 | COC(=O)c1nc(-c2cc(F)c(C(F)(F)F)cc2F)ccc1Cl [F323, Methyl 3-chloro-6-(2,5-difluoro-4-(trifluoromethyl)phenyl)picolinate] | 0 to 29%

same assay, conditions: post-emergence, 336 h, yellow nutsedge (Cyperus esculentus), 14 Days After Application, 140 g ai/ha, read-out: Visual Growth Reduction (%) CYPES

Row | Compound | pest or weed control at 140 g/ha
29 | COC(=O)c1nc(-c2cc(F)c3c(c2)OC(F)(F)O3)c(F)cc1Cl [F240, Methyl 3-chloro-5-fluoro-6-(2,2,7-trifluorobenzo[d][1,3]dioxol-5-yl)picolinate] | 0 to 29%
30 | COC(=O)c1nc(-c2cc(F)c(C(F)(F)F)cc2F)ccc1Cl [F323, Methyl 3-chloro-6-(2,5-difluoro-4-(trifluoromethyl)phenyl)picolinate] | 45 to 59%
